Experimental data taken from PMC12316308, “Interactions of substrates and phosphinyl containing inhibitors with bacterial and human zinc proteases” (PLOS One, 2025).
“And” between values parts separate entries of the source, which are not always exact repeats. Identical values can stand only once. Like-named read-outs stand apart in the source and are kept apart here.

How the values were obtained:
Assay in all cases: Enzyme inhibition kinetics, fluorogenic substrate ES001
Format in all cases: biochemical
[1] = molecular target: T1, Mag-Trypsin activated MMP-9 (MMP-9(MT)) (Homo sapiens, UniProt P14780)
T1 construct: made in house; host or cells: Sf9 and High Five insect cells
T1 sequence (P14780 107-707 limits assumed): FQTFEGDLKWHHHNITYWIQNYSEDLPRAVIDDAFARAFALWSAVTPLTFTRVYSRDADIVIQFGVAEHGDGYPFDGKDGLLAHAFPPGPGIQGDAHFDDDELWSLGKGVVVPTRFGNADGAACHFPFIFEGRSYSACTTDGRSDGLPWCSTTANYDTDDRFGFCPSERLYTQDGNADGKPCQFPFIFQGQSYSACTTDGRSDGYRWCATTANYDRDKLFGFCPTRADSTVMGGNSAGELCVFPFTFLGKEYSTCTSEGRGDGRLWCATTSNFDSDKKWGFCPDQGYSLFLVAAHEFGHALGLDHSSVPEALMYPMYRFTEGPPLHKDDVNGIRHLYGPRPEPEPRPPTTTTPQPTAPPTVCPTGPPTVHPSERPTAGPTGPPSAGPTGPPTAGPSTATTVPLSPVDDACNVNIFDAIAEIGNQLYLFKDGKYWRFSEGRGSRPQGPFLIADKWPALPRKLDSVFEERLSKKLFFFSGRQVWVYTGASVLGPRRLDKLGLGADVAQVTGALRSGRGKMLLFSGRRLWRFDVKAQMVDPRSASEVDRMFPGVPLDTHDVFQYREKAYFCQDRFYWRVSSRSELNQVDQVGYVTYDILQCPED

[2] = molecular target: T2, APMA activated MMP-9 (MMP-9(A)) (Homo sapiens, UniProt P14780); settings: for Vi/V0 AVG: APMA activated MMP-9, average
T2 construct: made in house; host or cells: Sf9 and High Five insect cells
T2 sequence (P14780 107-707 limits assumed): as above
Outline: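 Recombinant full-length proMMP-9 expressed in insect cells was auto-activated with APMA and titrated with galardin. Activity at 0.05 nM enzyme was measured using 4.0 µM fluorogenic substrate ES001 in 100 µL 0.1 M Hepes pH 7.5 containing 10 mM CaCl2, 0.005% Brij-35 and 1.0% DMSO. Initial rates were followed at 37°C (excitation 320 nm, emission 405 nm) relative to inhibitor-free controls.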

[3] = molecular target: T3, human MT1-MMP/MMP-14 (catalytic domain) (Homo sapiens, UniProt P50281); settings: for remaining activity at 0.01 µM: log [H1] (M) -8; for remaining activity at 0.0001 µM: log [H1] (M) -10
T3 construct: human MT1-MMP/MMP-14 (catalytic domain); purchased Calbiochem (San Diego, CA, USA)

[4] = MMP-14, log [H1] (M) -4, replicates
[5] = read-out: vi/v0 before correction of curve, MMP-14, replicates
[6] = read-out: vi/v0 corrected (v0 is the average of log -10 to log -7), MMP-14, replicates

## NC(=O)C(CCC(=O)O)NC(=O)C(CCC(=O)O)NC(=O)C(Cc1cc(-c2ccc(-c3cccc(Cl)c3)cc2)no1)CP(=O)(O)c1ccc(Br)cc1 (stereo not drawn) [H-1]
[1]; read-out: Vi/V0, Trypsin activated MMP-9, [H1] 50 μM, replicate vi over each of 4 controls
  remaining activity at 50 µM: 58.9%
[1]; read-out: Vi/V0, Trypsin activated MMP-9, [H1] 60 μM, replicate vi over each of 4 controls
  remaining activity at 60 µM: 52.9%
[1]; read-out: Vi/V0, Trypsin activated MMP-9, [H1] 70 μM, replicate vi over each of 4 controls
  remaining activity at 70 µM: 49.6%
[1]; read-out: Vi/V0, Trypsin activated MMP-9, [H1] 80 μM, replicate vi over each of 4 controls
  remaining activity at 80 µM: 51%
[1]; read-out: Vi/V0, Trypsin activated MMP-9, [H1] 90 μM, replicate vi over each of 4 controls
  remaining activity at 90 µM: 44.2%
[1]; read-out: Vi/V0, Trypsin activated MMP-9, [H1] 100 μM, replicate vi over each of 4 controls
  remaining activity at 100 µM: 40.5%
[1]; read-out: vi/v0 (single replicate), rMMP-9 (Mag-trypsin activated), 100 µM inhibitor, no preincubation
  remaining activity at 100 µM: 45.7%
[1]; read-out: vi/v0 avg, rMMP-9 (Mag-trypsin activated), 100 µM inhibitor, no preincubation
  remaining activity at 100 µM: 47.2%
[2]
  Ki: 19 ± 3 µM
[2]; 0.25 h, read-out: vi/v0 avg, rMMP-9 (APMA activated), 100 µM inhibitor, 15 min pre incubation
  remaining activity at 100 µM: 25.7%
[2]; 0.5 h, read-out: vi/v0 avg, rMMP-9 (APMA activated), 100 µM inhibitor, 30 min pre incubation
  remaining activity at 100 µM: 25.3%
[2]; [H1] 10 μM
  Vi/V0 AVG: 0.7315
[2]; [H1] 20 μM
  Vi/V0 AVG: 0.5955
[2]; [H1] 30 μM
  Vi/V0 AVG: 0.5816
[2]; [H1] 40 μM
  Vi/V0 AVG: 0.5052
[2]; [H1] 50 μM
  Vi/V0 AVG: 0.4481
[2]; [H1] 60 μM
  Vi/V0 AVG: 0.4125
[2]; [H1] 70 μM
  Vi/V0 AVG: 0.3558
[2]; [H1] 80 μM
  Vi/V0 AVG: 0.3478
[2]; [H1] 90 μM
  Vi/V0 AVG: 0.3201
[2]; [H1] 100 μM
  Vi/V0 AVG: 0.265
[2]; MMP-9(A), 100 μM compound, in words
  inhibitory effect on enzymatic activity: strong inhibition
[2]; rMMP-9 (APMA activated), inhibitor 100 μM, average over 0, 15, 30 min preincubation
  vi/v0 Av (bar diagram figure 7): 0.2424
[2]; rMMP-9 (APMA activated), inhibitor 100 μM, preincubation 0 min
  vi/v0 (relative enzyme activity with inhibitor), single determinations: 0.1639 and 0.167 and 0.1831 and 0.1727 and 0.3076 and 0.251 and 0.276
[2]; read-out: Vi/V0, APMA activated MMP-9, [H1] 20 μM, replicate vi over each of 4 controls
  remaining activity at 20 µM: 59.1%
[2]; read-out: Vi/V0, APMA activated MMP-9, [H1] 40 μM, replicate vi over each of 4 controls
  remaining activity at 40 µM: 41.9%
[2]; read-out: Vi/V0, APMA activated MMP-9, [H1] 50 μM, replicate vi over each of 4 controls
  remaining activity at 50 µM: 41.4%
[2]; read-out: Vi/V0, APMA activated MMP-9, [H1] 60 μM, replicate vi over each of 4 controls
  remaining activity at 60 µM: 36.8%
[2]; read-out: Vi/V0, APMA activated MMP-9, [H1] 70 μM, replicate vi over each of 4 controls
  remaining activity at 70 µM: 33.5%
[2]; read-out: Vi/V0, APMA activated MMP-9, [H1] 80 μM, replicate vi over each of 4 controls
  remaining activity at 80 µM: 32.6%
[2]; read-out: Vi/V0, APMA activated MMP-9, [H1] 90 μM, replicate vi over each of 4 controls
  remaining activity at 90 µM: 27.8%
[2]; read-out: Vi/V0, APMA activated MMP-9, [H1] 100 μM, replicate vi over each of 4 controls
  remaining activity at 100 µM: 23.6%
[2]; read-out: vi/v0 (single replicate), rMMP-9 (APMA activated), 100 µM inhibitor, no preincubation
  remaining activity at 100 µM: 16.4%
[2]; read-out: vi/v0 avg, rMMP-9 (APMA activated), 100 µM inhibitor, no preincubation
  remaining activity at 100 µM: 21.7%
[3]
  Ki: 0.89 ± 0.04 µM
[3]; 0.25 h, read-out: vi/v0 (single replicate), MMP-14, 100 µM inhibitor, 15 min pre incubation
  remaining activity at 100 µM: 3.03%
[3]; 0.25 h, read-out: vi/v0 avg, MMP-14, 100 µM inhibitor, 15 min pre incubation
  remaining activity at 100 µM: 2.86%
[3]; 0.5 h, read-out: vi/v0 (single replicate), MMP-14, 100 µM inhibitor, 30 min pre incubation
  remaining activity at 100 µM: 4.56%
[3]; 0.5 h, read-out: vi/v0 avg, MMP-14, 100 µM inhibitor, 30 min pre incubation
  remaining activity at 100 µM: 3.15%
[3]; MMP-14, 100 μM compound, in words
  inhibitory effect on enzymatic activity: strong inhibition
[3]; MMP-14, inhibitor 100 μM, average over preincubation times
  vi/v0 Av (bar diagram figure 7): 0.03265
[3]; MMP-14, inhibitor 100 μM, preincubation 0 min
  vi/v0 (relative enzyme activity with inhibitor), single determinations: 0.02699 and 0.03692 and 0.04011 and 0.0422
[3]; MMP-14, inhibitor 100 μM, preincubation 15 min
  vi/v0 (relative enzyme activity with inhibitor), single determinations: 0.03033 and 0.02659 and 0.02876
[3]; MMP-14, inhibitor 100 μM, preincubation 30 min
  vi/v0 (relative enzyme activity with inhibitor), single determinations: 0.04555 and 0.0252 and 0.02389
[3]; [4]
  vi/v0 before correction of curve: 0
  vi/v0 corrected (v0 is the average of log -10 to log -7): 0
[3]; read-out: vi/v0 (single replicate), MMP-14, 100 µM inhibitor, no preincubation
  remaining activity at 100 µM: 2.7%
[3]; read-out: vi/v0 avg, MMP-14, 100 µM inhibitor, no preincubation
  remaining activity at 100 µM: 3.66%
[3]; read-out: vi/v0 before correction of curve, MMP-14, log [H1] (M) -4, replicates
  remaining activity at 100 µM: 0%
[3]; [5]
  remaining activity at 0.01 µM: 90.7%
  remaining activity at 0.0001 µM: 94.8%
[3]; read-out: vi/v0 corrected (v0 is the average of log -10 to log -7), MMP-14, log [H1] (M) -4, replicates
  remaining activity at 100 µM: 0%
[3]; [6]
  remaining activity at 0.01 µM: 91.4%
  remaining activity at 0.0001 µM: 95.4%
